Assay results published in PMC8068134 (Toxins, 2021).
Like-named read-outs stand apart in the source and are kept apart here. Numbered stars: 1 amine (or outer) side, 2 acyl side, 3 side chain; on linkers, the order of the positions; unused ones are H or OH. Bridge positions count the residues as written; N and C are the ends. Square brackets hold non-standard residues; d marks the D form. Peptide text beside a SMILES is read from it. hTyr = N[C@@H](CCc1ccc(O)cc1)C(=O)O; NMeA = CN[C@@H](C)C(=O)O; CO = O=C([*:1])[*:2]

Experiments:
physchem = assay type: physicochemical; settings: cells or culture medium, 3rd day, mean ± SD, n = 3, read-out: Peptide Remaining Concentration (%), Negative Control, 3rd Day
Description: OD-corrected P. toxinivorans was transferred to the 96-well microplate in a solution with fresh culture media and individual peptides. For all experimental conditions, microplates were prepared to allow different sampling times over 7 days of incubation in a shaker incubator at 150 rpm and 28 °C. Three different plates were initially prepared maintaining the same conditions, and they were, respectively, taken to be considered as sampling time at 0, 3, and 7th days. This procedure was established in order to sample only once from each well to avoid the effect of differing volumes and potential contamination. At each sampling time, 150 µL were taken and added to 150 µL of 80% aqueous methanol solution with 2% formic acid (in a 1.5 mL centrifuge tube) in order to kill bacteria and stop their metabolism, as well as to precipitate large proteins, which could affect analytical procedures. Samples were centrifuged for 15 min at 13,000× g. Supernatants were recovered, 1:10 diluted (100:900 μL) in aqueous methanol 80% and stored at −20 °C until ultrahigh performance liquid chromatography coupled to mass spectrometry analysis (UPLC–MS). This experimental design was applied in all experiments in order to evaluate the biodegradation of peptides by P. toxinivorans. All experimental conditions were carried out in biological replicates (n = 3) and with negative controls without bacteria.
All peptides studied were analyzed by UPLC–PDA–MS/MS (Waters®, Manchester, UK) as described previously by Turner et al.. Briefly, chromatographic separation was carried out using a Waters ACQUITY UPLC BEH C18 column (1.7 µm, 2.1 × 100 mm) held at 60 °C. Samples were kept in the sample manager at 10 °C and the injection volume was 5 µL. Mobile phase consisted of (A) water + 0.025% formic acid and (B) acetonitrile + 0.025% formic acid at a flow rate of 0.6 mL/min. The gradient consisted of 2% B initial condition rising to 25% B at 0.5 min holding until 1.5 min, rising to 40% B at 3.0 min, increasing further to 50% B at 4 min, a quick rise to 95% B and 4.1 min and held until 4.5 min before dropping back to 2% B at 5 min. Detection wavelength was set at 238 nm. Mass spectrometric detection was performed with a triple quadrupole mass spectrometer (Waters Xevo TQ-XS, Manchester, UK) equipped with an electrospray ionization (ESI) interface operating in positive ionization mode. Operational parameters were as follow: 150 °C source temperature, 600 °C desolvation temperature, 600 L/h desolvation gas flow (N2), 150 L/h cone gas flow, and 0.15 mL/min collision gas flow (Ar). Capillary voltage was held at 1.0 kV. Multiple Reaction Monitoring (MRM) transitions used as well as retention time, chemical structure, and respective formula of peptides can be found in Table S2. […]

[1] = Y2 strain culture; individual peptide, peptide mix, and M. aeruginosa crude extract; settings: Sphingosinicella microcystinivorans (Y2 strain)
[2] = Paucibacter toxinivorans (2C20) culture (OD600 0.4) in R2A media, pure MC-LR; settings: Paucibacter toxinivorans 2C20 strain, 28 °C, up to 7 days
[3] = enzymatic activity of a Sphingomonas species that possess mlr pathway; settings: cited from earlier work
[4] = Paucibacter toxinivorans (2C20) culture in R2A media with cyanopeptide mix; settings: Paucibacter toxinivorans 2C20 strain, 28 °C, up to 7 days
[5] = enzymatic biodegradation product of Sphingopyxis sp. USTB05; settings: cited from earlier work
[6] = Individual peptide, 10 μg/mL, UPLC-MS/MS

Molecule	remaining at 72 h (physchem; [6])	not cleaved [1]	further results
CC[C@H](C)[C@@H]1NC(=O)[C@@H]2CSC(=N2)[C@@H]([C@@H](C)CC)NC(=O)c2csc(n2)CNC(=O)[C@H]2N=C1O[C@@H]2C [AC-A, aerucyclamide A]	–	–	remaining at 72 h (physchem; In MIX: MC-LR 10 μg/mL, other cyanopeptides 1 µg/mL): 109 ± 5.6%
CSCC[C@@H]1NC(=O)[C@@H]2CSC(=N2)[C@@H](Cc2ccccc2)NC(=O)c2csc(n2)CNC(=O)[C@H]2N=C1O[C@@H]2C [AC-D, aerucyclamide D]	113 ± 1.6%	–	–
CC(C)[C@@H]1NC(=O)[C@H](NC(=O)N[C@@H](Cc2ccc(O)cc2)C(=O)O)CCCCNC(=O)[C@H](Cc2ccccc2)NC(=O)[C@H](C)N(C)C(=O)[C@H](CCc2ccc(O)cc2)NC1=O [ANBP-A, anabaenopeptin A] ({Tyr-CO}-[dK]V[hTyr][NMeA]F; lactam 1-C)	112 ± 8.1%	–	–
CC(C)[C@@H]1NC(=O)[C@H](NC(=O)N[C@@H](CCCNC(=N)N)C(=O)O)CCCCNC(=O)[C@H](Cc2ccccc2)NC(=O)[C@H](C)N(C)C(=O)[C@H](CCc2ccc(O)cc2)NC1=O [ANBP-B, anabaenopeptin B] ({Arg-CO}-[dK]V[hTyr][NMeA]F; lactam 1-C)	100 ± 17.1%	–	–
Adda-Glu-Mdha-Ala-Leu-Masp-Arg	–	did not degrade any cyanobacterial peptides	cleaved bond [2]: Arg-Adda, day 3; fragment found [3]: linearized MC-LR (biodegradation product A)
Adda-Glu-Mdha-Ala-Leu-Masp-Phe	–	did not degrade any cyanobacterial peptides	cleaved bond [4]: Phe-Adda, day 7
Adda-Glu-Mdha-Ala-Tyr-Masp-Arg	–	did not degrade any cyanobacterial peptides	cleaved bond [4]: Arg-Adda, day 7; fragment found [5]: linearized MC-YR (peptide C)
